Source: patent US8614214B2, “Pyrazole amide compounds and uses thereof” (Sinochem Corporation, priority 2010, dated 2013)
Like-named read-outs stand apart in the source and are kept apart here.

Experiments:
corn rust = assay: Greenhouse pot seedling assay, corn rust; assay type: in vivo; settings: for control of corn rust / pest or weed control at 400 ppm: 400 ppm; for pest or weed control at 400 ppm: Zea mays, 192 h, Table 21, read-out: Biological activity in greenhouse, corn rust; for Control (%): comparative test, Table 20
cucumber downy mildew [1] = assay: Greenhouse pot seedling assay, cucumber downy mildew; assay type: in vivo; settings: for pest or weed control at 400 ppm: Cucumis sativus, 120 h, Table 21, read-out: Biological activity in greenhouse, cucumber downy mildew; for Control (%): comparative test, Table 18
wheat powdery mildew = assay: Greenhouse pot seedling assay, wheat powdery mildew; assay type: in vivo; settings: for pest or weed control at 400 ppm: Triticum aestivum, 192 h, Table 21, read-out: Biological activity in greenhouse, wheat powdery mildew; for control of wheat powdery mildew: 400 ppm
cucumber downy mildew [2] = assay: Field trial against cucumber downy mildew; assay type: in vivo; settings: for Control (%) average: average of 3 replicates; for Control (%) I: replicate I; for Control (%) II: replicate II; for Control (%) III: replicate III
Description: The trial was carried out in a greenhouse in July 2011 in […] district, Shanxi Province. Before the treatment, the cucumber plants were at the beginning of infection. The trial method was based on the National Standard of the People's Republic of China-“Pesticide-Guidelines for The Field Efficacy Trials”. […] The Area of plot was 15 m^2, random arrangement and 3 times replication. The volume was about 600 L/hm^2, and water was as the control. Efficacy calculation method is as follows: [formula] [formula]

rice blast [3] = assay type: cell-based; settings: 25 ppm
cucumber downy mildew [4] = assay: Persistence comparative test against cucumber downy mildew (greenhouse); assay type: in vivo
rice blast [5] = assay type: in vivo; settings: 600 ppm, field

## Cc1nn(C)c(C(=O)NCc2ccc(OCC(=O)Nc3ccccc3C(N)=O)cc2)c1Cl [Compound 156]
Corn rust; greenhouse
  control of corn rust: 100%

## CNC(=O)c1ccccc1NC(=O)C(C)Cl (centres unmarked) [VI-54]
Cucumber downy mildew [1]; 400 ppm
  pest or weed control at 400 ppm: 30%
Wheat powdery mildew
  pest or weed control at 400 ppm: 0%
other
  melting point: 121 to 122 °C
Corn rust
  pest or weed control at 400 ppm: 0%

## N#Cc1c(Cl)c(Cl)c(Cl)c(C#N)c1Cl [chlorothalonil, reference compound]
Cucumber downy mildew [2]; 800 ppm
  Control (%) average: 74%
  Control (%) I: 68%
  Control (%) II: 73%
  Control (%) III: 81%

## Cc1nn(C)c(C(=O)NCCc2ccc(O)cc2)c1Cl [VIII-138]
Cucumber downy mildew [1]; 400 ppm
  pest or weed control at 400 ppm: 0%
Wheat powdery mildew
  pest or weed control at 400 ppm: 0%
Corn rust
  pest or weed control at 400 ppm: 0%

## Cc1nn(C)c(C(=O)NCc2ccc(O)cc2)c1Cl [VIII-1]
Cucumber downy mildew [1]; 400 ppm
  pest or weed control at 400 ppm: 95%
Wheat powdery mildew
  pest or weed control at 400 ppm: 0%
Corn rust
  pest or weed control at 400 ppm: 50%

## CCOC(=O)c1ccccc1NC(=O)COc1ccc(CNC(=O)c2c(Cl)c(CC)nn2C)cc1 [Compound 99]
Corn rust; greenhouse
  control of corn rust: 100%

## CCc1nn(C)c(C(=O)NCc2ccc(O[C@H](C)C(=O)Nc3ccccc3C(=O)NC)cc2)c1Cl [Compound 66]
Cucumber downy mildew [1]; 400 ppm, greenhouse
  control of cucumber downy mildew: 100%
Corn rust; greenhouse
  control of corn rust: 100%

## CCc1nn(C)c(C(=O)NCCc2ccc(O)cc2)c1Cl [VIII-139]
Cucumber downy mildew [1]; 400 ppm
  pest or weed control at 400 ppm: 0%
Wheat powdery mildew
  pest or weed control at 400 ppm: 0%
Corn rust
  pest or weed control at 400 ppm: 0%

## COC(=O)c1ccccc1NC(=O)C(C)Cl (centres unmarked) [VI-56]
Cucumber downy mildew [1]; 400 ppm
  pest or weed control at 400 ppm: 75%
Wheat powdery mildew
  pest or weed control at 400 ppm: 0%
other
  melting point: 63 to 65 °C
Corn rust
  pest or weed control at 400 ppm: 30%

## CCCc1nn(C)c(C(=O)NCc2ccc(OCC(=O)Nc3ccccc3C(=O)NC)cc2)c1Cl [Compound 17]
Corn rust; greenhouse
  control of corn rust: 100%

## COC(=O)c1ccccc1NC(=O)CCl [VI-20]
Cucumber downy mildew [1]; 400 ppm
  pest or weed control at 400 ppm: 0%
Wheat powdery mildew
  pest or weed control at 400 ppm: 0%
other
  melting point: 92 to 94 °C
Corn rust
  pest or weed control at 400 ppm: 0%

## CCOC(=O)c1ccccc1NC(=O)COc1ccc(CNC(=O)c2c(Cl)c(C)nn2C)cc1 [Compound 95]
Rice blast [3]
  inhibition ratio on spore germination of rice blast: 100%
Corn rust; greenhouse
  control of corn rust: 100%

## CNC(=O)c1ccccc1NC(=O)COc1ccc(CNC(=O)c2cc(C)nn2C)cc1 [Compound 2]
Cucumber downy mildew [1]; 25 ppm, greenhouse
  control of cucumber downy mildew: 75%
Cucumber downy mildew [1]; 50 ppm, greenhouse
  control of cucumber downy mildew: 100%
Cucumber downy mildew [1]; 400 ppm, greenhouse
  control of cucumber downy mildew: 100%
Wheat powdery mildew; greenhouse
  control of wheat powdery mildew: 100%
Rice blast [3]
  inhibition ratio on spore germination of rice blast: 100%
Corn rust; greenhouse
  control of corn rust: 100%

## Fc1ccc([C@]2(Cn3cncn3)O[C@H]2c2ccccc2Cl)cc1 (racemic) [epoxiconazole, reference compound]
Corn rust; 3.13 ppm
  Control (%): 40%
Corn rust; 6.25 ppm
  Control (%): 75%
Corn rust; 12.5 ppm
  Control (%): 90%
Corn rust; 25 ppm
  Control (%): 95%
Corn rust; 50 ppm
  Control (%): 100%
Corn rust; 100 ppm
  Control (%): 100%

## CNC(=O)c1ccccc1NC(=O)COc1ccc(CN)cc1 [II-1, 2-(2-(4-(aminomethyl)phenoxy)acetamido)-N-methylbenzamide]
Cucumber downy mildew [1]; 400 ppm
  pest or weed control at 400 ppm: 0%
Wheat powdery mildew
  pest or weed control at 400 ppm: 100%
other
  melting point: 109 to 110 °C
Corn rust
  pest or weed control at 400 ppm: 0%

## CCOC(=O)c1cccc(C)c1NC(=O)COc1ccc(CNC(=O)c2c(Cl)c(C)nn2C)cc1 [Compound 94]
Corn rust; greenhouse
  control of corn rust: 100%

## COc1ccc(C(=CC(=O)N2CCOCC2)c2ccc(Cl)cc2)cc1OC [dimethomorph, reference compound]
Cucumber downy mildew [4]; 25 ppm, inoculation 3 days after treatment
  Control (%): 0%
Cucumber downy mildew [4]; 25 ppm, inoculation 7 days after treatment
  Control (%): 0%
Cucumber downy mildew [4]; 50 ppm, inoculation 3 days after treatment
  Control (%): 30%
Cucumber downy mildew [4]; 50 ppm, inoculation 7 days after treatment
  Control (%): 0%
Cucumber downy mildew [4]; 100 ppm, inoculation 3 days after treatment
  Control (%): 44%
Cucumber downy mildew [4]; 100 ppm, inoculation 7 days after treatment
  Control (%): 0%
Cucumber downy mildew [4]; 200 ppm, inoculation 3 days after treatment
  Control (%): 74%
Cucumber downy mildew [4]; 200 ppm, inoculation 7 days after treatment
  Control (%): 44%
Cucumber downy mildew [4]; 400 ppm, inoculation 3 days after treatment
  Control (%): 100%
Cucumber downy mildew [4]; 400 ppm, inoculation 7 days after treatment
  Control (%): 74%
Cucumber downy mildew [2]; 200 ppm
  Control (%) average: 53%
  Control (%) I: 44%
  Control (%) II: 52%
  Control (%) III: 63%
Cucumber downy mildew [1]; 6.25 ppm
  Control (%): 29%
Cucumber downy mildew [1]; 12.5 ppm
  Control (%): 74%
Cucumber downy mildew [1]; 25 ppm
  Control (%): 85%
Cucumber downy mildew [1]; 50 ppm
  Control (%): 88%
Cucumber downy mildew [1]; 100 ppm
  Control (%): 100%

## CNC(=O)c1ccccc1NC(=O)CCl [VI-1, 2-(2-chloroacetamido)-N-methylbenzamide]
Cucumber downy mildew [1]; 400 ppm
  pest or weed control at 400 ppm: 0%
Wheat powdery mildew
  pest or weed control at 400 ppm: 0%
other
  melting point: 155 to 157 °C
Corn rust
  pest or weed control at 400 ppm: 0%

## CCc1nn(C)c(C(=O)NCc2ccc(O[C@@H](C)C(=O)Nc3ccccc3C(=O)NC)cc2)c1Cl [Compound 69]
Cucumber downy mildew [1]; 400 ppm, greenhouse
  control of cucumber downy mildew: 100%
Corn rust; greenhouse
  control of corn rust: 100%

## COCC(=O)N(c1c(C)cccc1C)C(C)C(=O)OC (centres unmarked) [metalaxyl, reference compound]
Cucumber downy mildew [1]; 6.25 ppm
  Control (%): 0%
Cucumber downy mildew [1]; 12.5 ppm
  Control (%): 7%
Cucumber downy mildew [1]; 25 ppm
  Control (%): 22%
Cucumber downy mildew [1]; 50 ppm
  Control (%): 29%
Cucumber downy mildew [1]; 100 ppm
  Control (%): 59%

## CCc1nn(C)c(C(=O)NCc2ccc(OCC(=O)Nc3ccccc3C(=O)NC)cc2)c1Cl [Compound 16]
Cucumber downy mildew [1]; 25 ppm, greenhouse
  control of cucumber downy mildew: 100%
Cucumber downy mildew [1]; 50 ppm, greenhouse
  control of cucumber downy mildew: 100%
Cucumber downy mildew [1]; 400 ppm, greenhouse
  control of cucumber downy mildew: 100%
Wheat powdery mildew; greenhouse
  control of wheat powdery mildew: 100%
other
  melting point: 160 to 161 °C
Rice blast [3]; in vitro
  inhibition ratio on spore germination of rice blast: 100%
Corn rust; greenhouse
  control of corn rust: 100%

## CCc1cc(C(=O)NCc2ccc(OCC(=O)Nc3ccccc3C(=O)NC)cc2)n(C)n1 [Compound 3]
Cucumber downy mildew [1]; 25 ppm
  control of cucumber downy mildew: 95%
Cucumber downy mildew [1]; 50 ppm
  control of cucumber downy mildew: 100%
Cucumber downy mildew [1]; 400 ppm
  control of cucumber downy mildew: 100%
Wheat powdery mildew
  control of wheat powdery mildew: 100%
Rice blast [3]
  inhibition ratio on spore germination of rice blast: 100%
Corn rust
  control of corn rust: 100%

## CCNC(=O)c1cccc(C)c1NC(=O)COc1ccc(CNC(=O)c2cc(C)nn2C)cc1 [Compound 177]
Cucumber downy mildew [1]; 25 ppm, greenhouse
  control of cucumber downy mildew: 100%
Cucumber downy mildew [1]; 50 ppm, greenhouse
  control of cucumber downy mildew: 100%
Cucumber downy mildew [1]; 400 ppm, greenhouse
  control of cucumber downy mildew: 100%
Wheat powdery mildew; greenhouse
  control of wheat powdery mildew: 100%
Rice blast [3]
  inhibition ratio on spore germination of rice blast: 100%
Corn rust; greenhouse
  control of corn rust: 100%

## O=[N+]([O-])c1cc(C(F)(F)F)c(Cl)c([N+](=O)[O-])c1Nc1ncc(C(F)(F)F)cc1Cl [fluazinam, reference compound]
Rice blast [5]; average of 3 replicates
  Control (%) average: 75%
Rice blast [5]; replicate I
  Control (%) I: 70%
Rice blast [5]; replicate II
  Control (%) II: 75%
Rice blast [5]; replicate III
  Control (%) III: 80%

## C[C@@]1(c2ccc(Oc3ccccc3)cc2)OC(=O)N(Nc2ccccc2)C1=O (racemic) [famoxadone, reference compound]
Cucumber downy mildew [1]; 6.25 ppm
  Control (%): 14%
Cucumber downy mildew [1]; 12.5 ppm
  Control (%): 22%
Cucumber downy mildew [1]; 25 ppm
  Control (%): 51%
Cucumber downy mildew [1]; 50 ppm
  Control (%): 74%
Cucumber downy mildew [1]; 100 ppm
  Control (%): 81%
